Test results as given in patent US20240024488A1, “COMPOUNDS AND USES THEREOF” (Foghorn Therapeutics Inc., priority 2020, published 2024).

Experiments:
HiBit-BRM fusion protein = target: T1, HiBit-BRM fusion protein (Homo sapiens, UniProt P51531); test: HiBiT-BRM cell-based degradation assay (Nano-Glo HiBiT Lytic Detection, 24 h); settings: HeLa cell line expressing HiBiT-BRM; for DC50: read-out: BRM HiBit Degradation IC50
T1 construct: expressed in transfected cells
How it was run: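 HeLa cells stably expressing HiBiT-BRM were dosed with compounds (10-point 3-fold dilutions, 30 μM final top dose, duplicate) for 24 h. HiBiT signal was read by lytic LgBiT complementation luminescence. Percent degradation was normalised to DMSO (high control) and 2 μM of a reference BRM/BRG1 degrader (low control).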

[1] = target: T2, HiBit-BRG1 fusion protein (Homo sapiens, UniProt P51532); test: HiBiT-BRG1 cell-based degradation assay (Nano-Glo HiBiT Lytic Detection, 24 h); settings: HeLa cell line expressing HiBit-BRG1 and LgBit; for Dmax: read-out: BRG1 HiBit Degradation Maximum (%); for DC50: read-out: BRMG1 HiBit Degradation IC50
T2 construct: expressed in transfected cells
How it was run: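 Percent degradation derived from lytic HiBiT signal, normalized to DMSO-treated cells and to cells given 2 μM of a known BRM/BRG1 degrader. The HeLa line stably expressed HiBit-BRG1 and LgBit; treatment lasted 24 h at 5000 cells per well.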

T1 sequence (P51531 whole entry, the tested form may be a part): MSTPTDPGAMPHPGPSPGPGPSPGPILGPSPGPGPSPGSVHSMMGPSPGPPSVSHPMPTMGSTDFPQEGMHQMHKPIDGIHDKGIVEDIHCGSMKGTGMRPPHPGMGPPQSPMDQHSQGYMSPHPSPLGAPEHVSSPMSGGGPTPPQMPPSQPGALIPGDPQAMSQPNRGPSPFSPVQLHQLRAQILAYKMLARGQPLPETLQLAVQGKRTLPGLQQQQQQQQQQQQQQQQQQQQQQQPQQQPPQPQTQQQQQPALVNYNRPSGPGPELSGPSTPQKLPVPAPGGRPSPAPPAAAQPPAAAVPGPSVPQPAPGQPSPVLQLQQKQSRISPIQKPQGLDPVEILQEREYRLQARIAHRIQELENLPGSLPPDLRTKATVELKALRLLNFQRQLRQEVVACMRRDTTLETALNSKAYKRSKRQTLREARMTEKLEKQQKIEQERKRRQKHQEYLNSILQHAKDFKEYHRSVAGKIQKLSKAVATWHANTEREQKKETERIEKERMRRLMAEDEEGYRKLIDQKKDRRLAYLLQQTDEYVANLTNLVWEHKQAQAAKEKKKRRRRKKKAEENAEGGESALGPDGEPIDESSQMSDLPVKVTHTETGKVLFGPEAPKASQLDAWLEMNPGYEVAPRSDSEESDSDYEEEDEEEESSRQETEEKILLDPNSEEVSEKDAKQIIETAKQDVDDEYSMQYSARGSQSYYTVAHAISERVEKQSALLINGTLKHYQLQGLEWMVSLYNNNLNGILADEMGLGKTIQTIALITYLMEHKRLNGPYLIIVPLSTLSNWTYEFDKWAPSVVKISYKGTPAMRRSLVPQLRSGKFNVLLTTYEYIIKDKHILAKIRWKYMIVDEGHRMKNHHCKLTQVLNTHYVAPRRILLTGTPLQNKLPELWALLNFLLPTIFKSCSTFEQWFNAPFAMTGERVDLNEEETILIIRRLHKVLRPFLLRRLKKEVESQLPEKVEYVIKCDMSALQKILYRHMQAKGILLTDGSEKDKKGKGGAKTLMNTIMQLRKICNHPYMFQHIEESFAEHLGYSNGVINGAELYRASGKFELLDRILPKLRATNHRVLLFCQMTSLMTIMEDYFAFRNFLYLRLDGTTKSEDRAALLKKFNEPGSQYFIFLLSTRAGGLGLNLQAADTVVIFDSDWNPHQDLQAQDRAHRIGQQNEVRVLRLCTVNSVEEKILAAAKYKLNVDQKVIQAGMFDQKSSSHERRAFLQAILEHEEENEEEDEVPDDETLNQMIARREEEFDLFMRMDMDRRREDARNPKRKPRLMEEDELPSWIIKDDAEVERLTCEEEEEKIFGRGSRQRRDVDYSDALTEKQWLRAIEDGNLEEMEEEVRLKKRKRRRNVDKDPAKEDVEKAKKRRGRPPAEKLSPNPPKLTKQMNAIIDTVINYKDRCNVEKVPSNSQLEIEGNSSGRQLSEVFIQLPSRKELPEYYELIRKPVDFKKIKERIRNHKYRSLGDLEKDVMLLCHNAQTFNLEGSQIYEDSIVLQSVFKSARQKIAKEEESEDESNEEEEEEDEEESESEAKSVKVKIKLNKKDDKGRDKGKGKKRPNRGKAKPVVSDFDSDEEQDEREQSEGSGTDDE
T2 sequence (P51532 whole entry, the tested form may be a part): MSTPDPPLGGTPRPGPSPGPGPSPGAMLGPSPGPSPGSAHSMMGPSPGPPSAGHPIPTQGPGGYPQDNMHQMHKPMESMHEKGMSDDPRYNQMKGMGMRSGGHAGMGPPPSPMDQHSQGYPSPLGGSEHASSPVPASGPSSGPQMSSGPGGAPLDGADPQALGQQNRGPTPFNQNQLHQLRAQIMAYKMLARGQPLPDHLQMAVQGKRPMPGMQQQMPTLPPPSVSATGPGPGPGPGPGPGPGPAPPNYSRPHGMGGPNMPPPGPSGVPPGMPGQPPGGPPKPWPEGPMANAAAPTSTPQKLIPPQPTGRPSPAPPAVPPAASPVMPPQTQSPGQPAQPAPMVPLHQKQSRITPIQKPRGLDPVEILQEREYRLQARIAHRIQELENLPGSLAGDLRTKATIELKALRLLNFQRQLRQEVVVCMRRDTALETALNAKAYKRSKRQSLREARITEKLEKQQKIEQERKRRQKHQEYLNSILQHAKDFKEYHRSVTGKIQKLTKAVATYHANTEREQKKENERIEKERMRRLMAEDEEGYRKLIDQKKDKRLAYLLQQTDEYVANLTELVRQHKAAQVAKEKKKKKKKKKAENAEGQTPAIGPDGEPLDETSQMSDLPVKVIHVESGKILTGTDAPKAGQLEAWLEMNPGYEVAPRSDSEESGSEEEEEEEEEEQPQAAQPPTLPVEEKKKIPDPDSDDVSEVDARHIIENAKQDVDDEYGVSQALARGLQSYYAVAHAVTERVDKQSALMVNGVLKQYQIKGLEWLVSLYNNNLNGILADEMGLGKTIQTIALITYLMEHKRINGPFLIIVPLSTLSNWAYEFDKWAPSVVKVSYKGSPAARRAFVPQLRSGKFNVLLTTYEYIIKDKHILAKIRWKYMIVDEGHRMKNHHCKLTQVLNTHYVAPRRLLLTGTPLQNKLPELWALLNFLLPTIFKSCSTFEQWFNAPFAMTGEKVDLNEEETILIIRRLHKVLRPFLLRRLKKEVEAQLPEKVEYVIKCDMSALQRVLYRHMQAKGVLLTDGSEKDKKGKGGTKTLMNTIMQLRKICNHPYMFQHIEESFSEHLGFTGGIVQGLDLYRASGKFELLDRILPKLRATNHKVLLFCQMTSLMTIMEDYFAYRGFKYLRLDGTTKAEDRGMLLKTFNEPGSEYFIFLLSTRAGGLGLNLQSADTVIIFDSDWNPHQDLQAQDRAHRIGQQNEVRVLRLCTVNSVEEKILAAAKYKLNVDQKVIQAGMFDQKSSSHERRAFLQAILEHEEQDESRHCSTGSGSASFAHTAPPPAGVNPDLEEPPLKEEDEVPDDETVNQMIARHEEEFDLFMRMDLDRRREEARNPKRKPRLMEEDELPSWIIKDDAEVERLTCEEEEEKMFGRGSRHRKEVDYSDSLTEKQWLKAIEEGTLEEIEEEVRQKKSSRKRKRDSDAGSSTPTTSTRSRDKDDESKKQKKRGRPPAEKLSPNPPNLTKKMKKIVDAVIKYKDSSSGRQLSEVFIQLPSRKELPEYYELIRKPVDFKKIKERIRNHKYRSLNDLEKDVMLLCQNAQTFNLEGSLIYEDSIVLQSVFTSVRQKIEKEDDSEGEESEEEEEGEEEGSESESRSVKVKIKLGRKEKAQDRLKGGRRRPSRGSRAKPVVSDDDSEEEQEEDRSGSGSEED

Cc1ncsc1-c1ccc([C@H](C)NC(=O)[C@@H]2C[C@@H](O)CN2C(=O)C(c2cc(OCC(=O)N[C@]3(C(=O)O)CCc4[nH]c5nnc(-c6ccccc6O)cc5c4C3)no2)C(C)C)cc1 (single isomer, unassigned) [Compound 89]
BRM HiBit Degradation Maximum (%) (HiBit-BRM fusion protein): C (“C” indicates maximum degradation < 50%) | Dmax [1]: < 50%

Cc1ncsc1-c1ccc([C@H](C)NC(=O)[C@@H]2C[C@@H](O)CN2C(=O)C(c2cc(OCCN[C@]3(C(=O)O)CCc4[nH]c5nnc(-c6ccccc6O)cc5c4C3)no2)C(C)C)cc1 (single isomer, unassigned) [Compound 91]
BRM HiBit Degradation Maximum (%) (HiBit-BRM fusion protein): C (“C” indicates maximum degradation < 50%) | Dmax [1]: < 50%

Cc1ncsc1-c1ccc([C@H](C)NC(=O)[C@@H]2C[C@@H](O)CN2C(=O)[C@@H](c2cc(N3CCC(c4cnc(N5CCC(c6c[nH]c7nnc(-c8ccccc8O)cc67)CC5)nc4)CC3)no2)C(C)C)cc1 (single isomer, unassigned) [Compound 92]
BRM HiBit Degradation Maximum (%) (HiBit-BRM fusion protein): A (“A” indicates maximum degradation ≥ 75%) | DC50 (HiBit-BRM fusion protein): > 10 nM | Dmax [1]: > 75% | DC50 [1]: > 10 nM

Cc1ncsc1-c1ccc([C@H](C)NC(=O)[C@@H]2C[C@@H](O)CN2C(=O)[C@H](c2cc(N3C[C@@H]4C[C@H]3CN4C(=O)[C@@H]3CCc4[nH]c5nnc(-c6ccccc6O)cc5c4C3)no2)C(C)C)cc1 (single isomer, unassigned) [Compound 100]
BRM HiBit Degradation Maximum (%) (HiBit-BRM fusion protein): C (“C” indicates maximum degradation < 50%) | Dmax [1]: < 50%

Cc1ncsc1-c1ccc([C@H](C)NC(=O)[C@@H]2C[C@@H](O)CN2C(=O)[C@@H](c2cc(N3C[C@@H]4C[C@H]3CN4C(=O)[C@@H]3CCc4[nH]c5nnc(-c6ccccc6O)cc5c4C3)no2)C(C)C)cc1 (single isomer, unassigned) [Compound 102]
BRM HiBit Degradation Maximum (%) (HiBit-BRM fusion protein): A (“A” indicates maximum degradation ≥ 75%) | Dmax [1]: < 50%

Cc1ncsc1-c1ccc([C@H](C)NC(=O)C2C[C@@H](O)CN2C(=O)[C@@H](c2cc(OCCN3C[C@H]4C[C@@H](c5[nH]c6nnc(-c7ccccc7O)cc6c5C)C[C@H]4C3)no2)C(C)C)cc1 (single isomer, unassigned) [Compound 108]
BRM HiBit Degradation Maximum (%) (HiBit-BRM fusion protein): A (“A” indicates maximum degradation ≥ 75%) | DC50 (HiBit-BRM fusion protein): < 10 nM | Dmax [1]: > 75% | DC50 [1]: > 10 nM

Cc1ncsc1-c1ccc([C@H](C)NC(=O)C2C[C@@H](O)CN2C(=O)[C@@H](c2cc(OCCN3C[C@H]4C[C@H](c5[nH]c6nnc(-c7ccccc7O)cc6c5C)C[C@H]4C3)no2)C(C)C)cc1 (single isomer, unassigned) [Compound 112]
BRM HiBit Degradation Maximum (%) (HiBit-BRM fusion protein): A (“A” indicates maximum degradation ≥ 75%) | DC50 (HiBit-BRM fusion protein): < 10 nM | Dmax [1]: > 75% | DC50 [1]: > 10 nM

Cc1ncsc1C12CC(CNC(=O)[C@@H]3C[C@@H](O)CN3C(=O)[C@H](c3cc(OCCN4CC(c5cc6cc(-c7ccccc7O)nnc6[nH]5)C4)no3)C(C)C)(C1)C2 (single isomer, unassigned) [Compound 114]
BRM HiBit Degradation Maximum (%) (HiBit-BRM fusion protein): C (“C” indicates maximum degradation < 50%) | Dmax [1]: < 50%

Cc1ncsc1C12CC(CNC(=O)[C@@H]3C[C@@H](O)CN3C(=O)[C@@H](c3cc(OCCN4CC(c5cc6cc(-c7ccccc7O)nnc6[nH]5)C4)no3)C(C)C)(C1)C2 (single isomer, unassigned) [Compound 115]
BRM HiBit Degradation Maximum (%) (HiBit-BRM fusion protein): C (“C” indicates maximum degradation < 50%) | Dmax [1]: < 50%

CC(C)[C@H](C(=O)N1C[C@H](O)C[C@H]1C(=O)N[C@@H](C)c1ccc(-c2ccccc2F)cc1)c1cc(OCCN2CC(c3cc4cc(-c5ccccc5O)nnc4[nH]3)C2)no1 (single isomer, unassigned) [Compound 117]
BRM HiBit Degradation Maximum (%) (HiBit-BRM fusion protein): C (“C” indicates maximum degradation < 50%) | Dmax [1]: < 50%

CC(C)[C@@H](C(=O)N1C[C@H](O)C[C@H]1C(=O)N[C@@H](C)c1ccc(-c2ccccc2F)cc1)c1cc(OCCN2CC(c3cc4cc(-c5ccccc5O)nnc4[nH]3)C2)no1 (single isomer, unassigned) [Compound 119]
BRM HiBit Degradation Maximum (%) (HiBit-BRM fusion protein): A (“A” indicates maximum degradation ≥ 75%) | DC50 (HiBit-BRM fusion protein): > 10 nM | Dmax [1]: > 50% | DC50 [1]: > 1000 nM
